Measured values reported in ChEMBL document CHEMBL1159215, “Isolation of antifungal and larvicidal constituents of Diplolophium buchanani by centrifugal partition chromatography” (1995).
The source made the active and inactive calls. The calls are words filed in the database; no cut-off is given here.

How the values were obtained:
Cladosporium cucumerinum = assay: Antifungal activity against Cladosporium cucumerinum assessed as inhibition of spore growth by TLC bioassay; assay type: functional
Aedes aegypti [1] = assay: Larvicidal activity against Aedes aegypti larvae after 24 hrs […]; assay type: functional
Aedes aegypti [2] = assay: Larvicidal activity against Aedes aegypti larvae at 400 ppm after 24 hrs […]; assay type: functional, organism-based

## Clc1ccc(COC(Cn2ccnc2)c2ccc(Cl)cc2Cl)c(Cl)c1 (configuration not stated) [MICONAZOLE]
Cladosporium cucumerinum
  Activity: 1 µg

## C/C=C\c1cc(OC)c(OC)cc1OC [CIS-ASARONE]
Aedes aegypti [1]
  LD100: 16 ppm

## CC1(C)O[C@H]1COc1c2ccoc2cc2oc(=O)ccc12 [OXYPEUCEDANIN]
Aedes aegypti [1]
  LD100: 25 ppm
Cladosporium cucumerinum
  Activity: 1 µg

## CC(C)(O)[C@H](O)COc1c2ccoc2cc2oc(=O)ccc12 [OXYPEUCEDANIN HYDRATE]
Aedes aegypti [2]
  Activity: inactive
Aedes aegypti [1]
  Activity: inactive
Cladosporium cucumerinum
  Activity: 10 µg
